Here are results for eleven compounds from patent US6989389B2, “Aryl ether substituted imidazoquinolines” (3M Innovative Properties Co., priority 2000, dated 2006).

The subject of series [1] is Peripheral blood mononuclear cells (PBMC). Nature of the series: Cytokine Induction in Human Cells (in vitro human blood cell system, IFN and TNF secreted into culture media). Details: key to Lowest Effective Concentration (μM) Tumor Necrosis Factor / Lowest Effective Concentration (μM) Interferon: *: no induction was seen at any of the tested concentrations. In kind it is cell-based. To be noted: 18 to 24 hours, tested 30-0.014 μM; for minimal effective concentration: Homo sapiens, PBMC. In a few lines: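 Human donor PBMC (2×10^6 cells/mL, RPMI complete) incubated 18–24 h at 37 °C, 5% CO2 with compound, 3-fold dilutions 30–0.014 μM, ≤1% DMSO. IFN-α measured by ELISA, TNF-α by ELISA or IGEN immunoassay in supernatants (pg/mL). Value is lowest concentration inducing each cytokine.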

[2] abbreviates: lowest concentration found to induce interferon (α), ELISA, read-out: Lowest Effective Concentration (μM) Interferon.
Setting [3] is: lowest concentration found to induce tumor necrosis factor (α), ELISA or IGEN assay, read-out: Lowest Effective Concentration (μM) Tumor Necrosis Factor.
The mark [4] stands for this setting: lowest concentration found to induce interferon (α), ELISA.
The mark [5] stands for this setting: lowest concentration found to induce tumor necrosis factor (α), ELISA or IGEN assay.

Read-outs that look alike come from different tables or passages of the source.

Consider `CCCCc1nc2c(N)nc3ccccc3c2n1CCOCc1ccccc1` [Example 126, 1-[2-(Benzyloxy)ethyl]-2-butyl-1H-imidazo[4,5-c]quinolin-4-amine], for which the melting point was in the range of 133 to 135 °C. In series [1] (setting [2]), the minimal effective concentration stood at 0.04 µM. Besides, the minimal effective concentration in series [1] (setting [3]) was 0.04 µM.
As to `Cc1nc2c(N)nc3ccccc3c2n1CCOCc1ccccc1` [Example 127, 1-[2-(Benzyloxy)ethyl]-2-methyl-1H-imidazo[4,5-c]quinolin-4-amine], the melting point lay within 159 to 160 °C. Besides, the minimal effective concentration in series [1] (setting [2]) was 0.01 µM. For the same compound, the minimal effective concentration in series [1] (setting [3]) is 0.12 µM.
As for `COc1ccc(Cc2nc3c(N)nc4ccccc4c3n2CCOc2ccccc2)cc1` [Example 134, 2-(4-Methoxybenzyl)-1-(2-phenoxyethyl)-1H-imidazo[4,5-c]quinolin-4-amine], the melting point was in the range of 201 to 203.6 °C. Further, in series [1] (setting [4]), the “Lowest Effective Concentration (μM) Interferon” value is reported as “*”. Moreover, the “Lowest Effective Concentration (μM) Tumor Necrosis Factor” value in series [1] (setting [5]) was “*”.
In the case of `Cc1nc2c(N)nc3ccccc3c2n1CCOCCCc1ccccc1` [Example 119, 2-Methyl-1-[2-(3-phenylpropoxy)ethyl]-1H-imidazo[4,5-c]quinolin-4-amine], the melting point lay in the range of 129.7 to 130.7 °C. Further, the minimal effective concentration in series [1] (setting [2]) worked out at 0.01 µM. Moreover, in series [1] (setting [3]), the minimal effective concentration was determined as 0.12 µM.
Take `CCCCCCCCc1nc2c(N)nc3ccccc3c2n1CCOCCCc1ccccc1` [Example 117, 2-Octyl-1-[2-(3-phenylpropoxy)ethyl]-1H-imidazo[4,5-c]quinolin-4-amine]: the melting point was 103.8 to 104.5 °C. The “Lowest Effective Concentration (μM) Interferon” value in series [1] (setting [4]) is “*”. The “Lowest Effective Concentration (μM) Tumor Necrosis Factor” value in series [1] (setting [5]) is “*”.
Turning to `CCCCc1nc2c(N)nc3ccccc3c2n1CCOCC#Cc1ccccc1` [Example 123, 2-Butyl-1-{2-[(3-phenylprop-2-ynyl)oxy]ethyl}-1H-imidazo[4,5-c]quinolin-4-amine], the melting point fell in the range of 133 to 140 °C. The minimal effective concentration in series [1] (setting [2]) is 0.12 µM. Moreover, in series [1] (setting [3]), the minimal effective concentration stood at 10 µM.
`Nc1nc2ccccc2c2c1nc(C1CCOC1)n2CCOc1ccccc1` (stereo not drawn) [Example 139, 1-(2-Phenoxyethyl)-2-tetrahydrofuran-3-yl-1H-imidazo[4,5-c]quinolin-4-amine] gave a melting point of 235.9 to 236.3 °C. The “Lowest Effective Concentration (μM) Interferon” value in series [1] (setting [4]) is given as “*”. In series [1] (setting [5]), the “Lowest Effective Concentration (μM) Tumor Necrosis Factor” value is reported as “*”.
Compound `CCC(COCc1cccc(Cl)c1)n1cnc2c(N)nc3ccccc3c21` (stereo not drawn) [Example 17, 1-(1-{[(3-Chlorobenzyl)oxy]methyl}propyl)-1H-imidazo[4,5-c]quinolin-4-amine] gave a melting point of 60 to 62 °C. The minimal effective concentration in series [1] (setting [2]) worked out at 0.12 µM. Moreover, the minimal effective concentration in series [1] (setting [3]) came out at 0.37 µM.
The compound `N#Cc1ccc(COCCn2cnc3c(N)nc4ccccc4c32)cc1` [Example 19, 4-{[2-(4-Amino-1H-imidazo[4,5-c]quinolin-1-yl)ethoxy]methyl}benzonitrile] returned a melting point of 238.1 to 239.2 °C. Moreover, the minimal effective concentration in series [1] (setting [2]) is 0.37 µM. Further, in series [1] (setting [5]), the “Lowest Effective Concentration (μM) Tumor Necrosis Factor” value is listed as “*”.
Turning to `CCCCCCCCc1nc2c(N)nc3ccccc3c2n1CCOCc1ccccc1` [Example 128, 1-[2-(Benzyloxy)ethyl]-2-octyl-1H-imidazo[4,5-c]quinolin-4-amine], the melting point is 110 to 111 °C. Moreover, the “Lowest Effective Concentration (μM) Interferon” value in series [1] (setting [4]) was “*”. For the same compound, the “Lowest Effective Concentration (μM) Tumor Necrosis Factor” value in series [1] (setting [5]) is listed as “*”.
`Cc1cccc(C)c1C#CCOCCn1cnc2c(N)nc3ccccc3c21` [Example 8, 1-(2-{[3-(2,6-Dimethylphenyl)-2-propynyl]oxy}ethyl)-1H-imidazo[4,5-c]quinolin-4-amine] displayed a melting point of 200 to 201 °C. Further, the minimal effective concentration in series [1] (setting [2]) was determined as 1.11 µM. Moreover, the minimal effective concentration in series [1] (setting [3]) was 10 µM.

The melting point is the temperature of the solid-liquid transition.
